1 compound from US11802129B1, “Pyrido[3,4-b]indol-1-one compounds as anticancer agents” (KING FAISAL UNIVERSITY, priority 2023, dated 2023) can be followed below.

Molecules are shown by their SMILES. pIC50: −log10 of the molar value.

Test [1] relates to HCT116 (colon). The test is described as follows: In vitro cytotoxic activity (MTT) assay, HCT116. The format is cell-based. The note with it: HCT-116; Human HCT116 (colon) cells, exposed for 96 hours. Here is the method: (§1) Compounds 1-10 were screened for their in vitro cytotoxic activity utilizing a 3-(4,5-dimethyl-thiazol-2-yl)-2,5-diphenyltetrazolium bromide (MTT) assay against selected cancer murine and human cancer cell lines (T. Mosmann, J. Immunol. Meth., 1983, 65, 55-63). The cells were cultured at 37° C. in RMPI1640 medium supplemented with 10% fetal bovine serum, 50 IU/mL penicillin, and 50 μg/mL streptomycin in a 5% CO2 incubator. All cells were sub-cultured 3 times/week by trypsinisation. Viable cells were seeded and allowed to adhere for 12 h before a test drug was added in 96-well plates at an initial density of 1.0×10^5 cells/mL. Tumour cell lines were separately exposed to various concentrations of the tested compounds followed by incubation at a temperature of 37° C. during 4 days inside a medium of fresh RMPI 1640. Cells were subsequently incubated at 37° C. using MTT at 0.5 mg/mL during 4 h. After removal of supernatant, formazan crystals were dissolved in isopropanol and the optical density was measured at 570 nm. CX-4945 has been used as a positive control.

Test [2] deals with Leukemia P388. Put plainly: In vitro cytotoxic activity (MTT) assay, Leukemia P388. The format is cell-based. The note with it: Mus musculus; Murine Leukemia P388 cells, exposed for 96 hours. As for the experimental part:
as §1

Test [3] relates to MIAPaCa-2 (pancreas). The test is described as follows: In vitro cytotoxic activity (MTT) assay, MIAPaCa-2. The format is cell-based. The following applies: MIA PaCa-2; Human MIAPaCa-2 (pancreas) cells, exposed for 96 hours. Here is the method:
as §1

The test system of test [4] is Colon C38 adenocarcinoma. The test is described as follows: In vitro cytotoxic activity (MTT) assay, Colon C38 adenocarcinoma. The note with it: Mus musculus; Murine Colon C38 adenocarcinoma cells, exposed for 96 hours. The format is cell-based. Here is the method:
as §1

Test [5] concerns A375 (melanoma). Put plainly: In vitro cytotoxic activity (MTT) assay, A375. The format is cell-based. The following applies: A-375; Human A375 (melanoma) cells, exposed for 96 hours. Here is the method:
as §1

For test [6], the system named is MCF7 (breast). Put plainly: In vitro cytotoxic activity (MTT) assay, MCF7. The format is cell-based. The following applies: Human MCF7 (breast) cells, exposed for 96 hours. Here is the method:
as §1

For test [7], the system named is MDA-MB-231 (breast). Put plainly: In vitro cytotoxic activity (MTT) assay, MDA-MB-231. The format is cell-based. The note with it: Human MDA-MB-231 (breast) cells, exposed for 96 hours. Here is the method: as §1
Test [8] deals with T1, CK2 (Homo sapiens, UniProt P68400).
T1 construct: purchased Upstate Biotechnology, Lake Placid, NY, USA
The test is described as follows: In vitro CK2 inhibitory assay (CK2 assay kit). The format is biochemical. The note with it: CK2 assay kit (Upstate Biotechnology). Here is the method: CK2 activity was assessed by using a CK2 assay kit (Upstate Biotechnology, Lake Placid, NY, USA) according to the manufacturer's instructions [T. Tiganis, C. M. House, B. E. Kemp, Arch. Biochem. Biophys. 1996,325, 289-294].

The test system of test [9] is PC3 (prostate). Put plainly: In vitro cytotoxic activity (MTT) assay, PC3. The following applies: Prostate cell; Human PC3 (prostate) cells, exposed for 96 hours. The format is cell-based. As for the experimental part:
as §1

Test [10] concerns HL60 (leukemia). The test is described as follows: In vitro cytotoxic activity (MTT) assay, HL60. The format is cell-based. The following applies: HL-60; Human HL60 (leukemia) cells, exposed for 96 hours. Here is the method: as §1
Test [11] has as its system B16 melanoma. The test is described as follows: In vitro cytotoxic activity (MTT) assay, B16 melanoma. The note with it: Mus musculus; Murine B16 melanoma cells, exposed for 96 hours. The format is cell-based. As for the experimental part: as §1
Test [12] concerns H1299 (lung). The test is described as follows: In vitro cytotoxic activity (MTT) assay, H1299. The note with it: NCI-H1299; Human H1299 (lung) cells, exposed for 96 hours. The format is cell-based. As for the experimental part: as §1

T1 sequence (P68400 whole entry): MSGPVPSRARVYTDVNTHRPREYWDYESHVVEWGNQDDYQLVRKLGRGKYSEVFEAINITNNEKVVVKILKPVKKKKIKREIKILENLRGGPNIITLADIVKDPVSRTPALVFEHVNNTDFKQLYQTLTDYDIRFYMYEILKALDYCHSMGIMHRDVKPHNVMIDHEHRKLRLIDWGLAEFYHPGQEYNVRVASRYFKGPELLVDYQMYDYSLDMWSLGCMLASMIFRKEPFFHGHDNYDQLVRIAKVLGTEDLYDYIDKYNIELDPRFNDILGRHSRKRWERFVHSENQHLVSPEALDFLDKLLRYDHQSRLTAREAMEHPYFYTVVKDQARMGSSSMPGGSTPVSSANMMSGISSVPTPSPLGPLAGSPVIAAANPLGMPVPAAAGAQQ

For orientation: pIC50 means the IC50 on a negative log10 scale, so that one unit is a factor of ten. Consider `O=C(O)c1ccc2[nH]c3c(=O)[nH]cc(Nc4cccc(Cl)c4)c3c2c1` [Example 3, 4-((3-chlorophenyl)amino)-1-oxo-2,9-dihydro-1H-pyrido[3,4-b]indole-6-carboxylic acid], for which the pIC50 in test [1] was 5.48; in [2], 5.26; in [3], 5.24; in test [4], 5.36; in test [5] it was 5.36; in test [6], 5.12. Besides, the pIC50 is 5.18 in test [7]; 8.30 in [8]; 5.59 in test [9]; 5.20 in [10]; 5.17 in test [11]; 5.68 in test [12].
